# Measurements reported in ChEMBL document CHEMBL4007388, “Synthesis and antiproliferative activity of monocationic arylthiophene derivatives” (Eur J Med Chem, 2017).
# What was measured:
# SNB-75 = assay: Growth inhibition of human SNB75 cells incubated for 48 hrs by sulforhodamine B assay; assay type: functional; settings: SNB-75, 48 h
# MDA-MB-435 = assay: Growth inhibition of human MDA-MB-435 cells incubated for 48 hrs by sulforhodamine B assay; assay type: functional; settings: MDA-MB-435, 48 h
# SK-MEL-28 = assay: Growth inhibition of human SK-MEL-28 cells incubated for 48 hrs by sulforhodamine B assay; assay type: functional; settings: SK-MEL-28, 48 h
# K562 = assay: Growth inhibition of human K562 cells incubated for 48 hrs by sulforhodamine B assay; assay type: functional; settings: K562, 48 h
# NCI-H460 = assay: Growth inhibition of human NCI-H460 cells incubated for 48 hrs by sulforhodamine B assay; assay type: functional; settings: NCI-H460, 48 h
# [1] = Growth inhibition of human NCI60 cells at 10 uM after 48 hrs by SRB assay relative to control; values are per cent of control; settings: NCI60, 48 h
# OVCAR-8 = assay: Growth inhibition of human OVCAR8 cells incubated for 48 hrs by sulforhodamine B assay; assay type: functional; settings: OVCAR-8, 48 h
# Escherichia coli = assay: Induction of Escherichia coli genomic DNA cleavage after 1 hr by agarose gel electrophoresis method
# MDA-MB-468 = assay: Growth inhibition of human MDA-MB-468 cells incubated for 48 hrs by sulforhodamine B assay; assay type: functional; settings: MDA-MB-468, 48 h
# OVCAR-5 = assay: Growth inhibition of human OVCAR5 cells incubated for 48 hrs by sulforhodamine B assay; assay type: functional; settings: OVCAR-5, 48 h
# U-251 = assay: Growth inhibition of human U251 cells incubated for 48 hrs by sulforhodamine B assay; assay type: functional; settings: U-251, 48 h
# NCI/ADR-RES = assay: Growth inhibition of human NCI/ADR-RES cells incubated for 48 hrs by sulforhodamine B assay; assay type: functional
# HT-29 = assay: Growth inhibition of human HT-29 cells incubated for 48 hrs by sulforhodamine B assay; assay type: functional; settings: HT-29, 48 h
# RXF 393 = assay: Growth inhibition of human RXF393 cells incubated for 48 hrs by sulforhodamine B assay; assay type: functional; settings: RXF 393, 48 h
# COLO 205 = assay: Growth inhibition of human COLO205 cells incubated for 48 hrs by sulforhodamine B assay; assay type: functional; settings: COLO 205, 48 h
# M14 = assay: Growth inhibition of human M14 cells incubated for 48 hrs by sulforhodamine B assay; assay type: functional; settings: M14, 48 h
# SN12C = assay: Growth inhibition of human SN12C cells incubated for 48 hrs by sulforhodamine B assay; assay type: functional
# WI-38 = assay: Cytotoxicity against human WI38 cells assessed as reduction in cell viability after 24 hrs by MTT assay; assay type: cell-based; settings: WI-38, 24 h
# ACHN = assay: Growth inhibition of human ACHN cells incubated for 48 hrs by sulforhodamine B assay; assay type: functional
# HCT-15 = assay: Growth inhibition of human HCT15 cells incubated for 48 hrs by sulforhodamine B assay; assay type: functional; settings: HCT-15, 48 h
# HOP-92 = assay: Growth inhibition of human HOP92 cells incubated for 48 hrs by sulforhodamine B assay; assay type: functional; settings: HOP-92, 48 h
# UO-31 = assay: Growth inhibition of human UO31 cells incubated for 48 hrs by sulforhodamine B assay; assay type: functional; settings: UO-31, 48 h
# UACC-62 = assay: Growth inhibition of human UACC62 cells incubated for 48 hrs by sulforhodamine B assay; assay type: functional; settings: UACC-62, 48 h
# MCF7 = assay: Growth inhibition of human MCF7 cells incubated for 48 hrs by sulforhodamine B assay; assay type: functional; settings: MCF7, 48 h
# Hs-578T = assay: Growth inhibition of human Hs 578T cells incubated for 48 hrs by sulforhodamine B assay; assay type: functional
# OVCAR-3 = assay: Growth inhibition of human OVCAR3 cells incubated for 48 hrs by sulforhodamine B assay; assay type: functional; settings: OVCAR-3, 48 h
# SK-MEL-5 = assay: Growth inhibition of human SK-MEL-5 cells incubated for 48 hrs by sulforhodamine B assay; assay type: functional; settings: SK-MEL-5, 48 h
# SF-268 = assay: Growth inhibition of human SF268 cells incubated for 48 hrs by sulforhodamine B assay; assay type: functional; settings: SF-268, 48 h
# HCT-116 = assay: Growth inhibition of human HCT116 cells incubated for 48 hrs by sulforhodamine B assay; assay type: functional; settings: HCT-116, 48 h
# OVCAR-4 = assay: Growth inhibition of human OVCAR4 cells incubated for 48 hrs by sulforhodamine B assay; assay type: functional; settings: OVCAR-4, 48 h
# SK-MEL-2 = assay: Growth inhibition of human SK-MEL-2 cells incubated for 48 hrs by sulforhodamine B assay; assay type: functional; settings: SK-MEL-2, 48 h
# CAKI-1 = assay: Growth inhibition of human Caki1 cells incubated for 48 hrs by sulforhodamine B assay; assay type: functional; settings: CAKI-1, 48 h
# LOX IMVI = assay: Growth inhibition of human LOXIMVI cells incubated for 48 hrs by sulforhodamine B assay; assay type: functional
# RPMI-8226 = assay: Growth inhibition of human RPMI8226 cells incubated for 48 hrs by sulforhodamine B assay; assay type: functional; settings: RPMI-8226, 48 h
# SF-539 = assay: Growth inhibition of human SF539 cells incubated for 48 hrs by sulforhodamine B assay; assay type: functional; settings: SF-539, 48 h
# A549 = assay: Growth inhibition of human A549/ATCC cells incubated for 48 hrs by sulforhodamine B assay; assay type: functional; settings: A549, 48 h
# NCI-H23 = assay: Growth inhibition of human NCI-H23 cells incubated for 48 hrs by sulforhodamine B assay; assay type: functional; settings: NCI-H23, 48 h
# 786-0 = assay: Growth inhibition of human 786-O cells incubated for 48 hrs by sulforhodamine B assay; assay type: functional; settings: 786-0, 48 h
# NCI-H522 = assay: Growth inhibition of human NCI-H522 cells incubated for 48 hrs by sulforhodamine B assay; assay type: functional; settings: NCI-H522, 48 h
# SNB-19 = assay: Growth inhibition of human SNB19 cells incubated for 48 hrs by sulforhodamine B assay; assay type: functional; settings: SNB-19, 48 h
# UACC-257 = assay: Growth inhibition of human UACC257 cells incubated for 48 hrs by sulforhodamine B assay; assay type: functional; settings: UACC-257, 48 h
# SK-OV-3 = assay: Growth inhibition of human SKOV3 cells incubated for 48 hrs by sulforhodamine B assay; assay type: functional; settings: SK-OV-3, 48 h
# PC-3 = assay: Growth inhibition of human PC3 cells incubated for 48 hrs by sulforhodamine B assay; assay type: functional; settings: PC-3, 48 h
# Malme-3M = assay: Growth inhibition of human MALME-3M cells incubated for 48 hrs by sulforhodamine B assay; assay type: functional
# NCI-H322M = assay: Growth inhibition of human NCI-H322M cells incubated for 48 hrs by sulforhodamine B assay; assay type: functional
# SW-620 = assay: Growth inhibition of human SW620 cells incubated for 48 hrs by sulforhodamine B assay; assay type: functional; settings: SW-620, 48 h
# [2] = Antioxidant activity assessed as superoxide dismutase-like activity by measuring inhibition of superoxide radical anion production at 2 uM by NBT reduction assay relative to control; assay type: functional
smiles,measurement,setting,value
COc1cc(OC)cc(-c2ccc(-c3ccc(C(=N)N)cc3)s2)c1,GI50,SNB-75,1580 nM
same,GI50,MDA-MB-435,1700 nM
same,GI50,SK-MEL-28,1790 nM
same,GI50,K562,418 nM
same,GI50,NCI-H460,1840 nM
same,growth percent at 10 µM,[1],-74.1%
same,GI50,OVCAR-8,2480 nM
same,Activity,Escherichia coli,Dose-dependent effect
same,GI50,MDA-MB-468,1680 nM
same,GI50,OVCAR-5,1900 nM
same,GI50,U-251,1670 nM
same,GI50,NCI/ADR-RES,1970 nM
same,GI50,HT-29,1090 nM
same,GI50,RXF 393,1810 nM
same,GI50,COLO 205,1330 nM
same,GI50,M14,1730 nM
same,GI50,SN12C,1970 nM
same,IC50,WI-38,73900 nM
same,GI50,ACHN,1770 nM
same,GI50,HCT-15,1220 nM
same,GI50,HOP-92,1750 nM
same,GI50,UO-31,1770 nM
same,GI50,UACC-62,1870 nM
same,GI50,MCF7,1220 nM
same,GI50,Hs-578T,1990 nM
same,GI50,OVCAR-3,1950 nM
same,GI50,SK-MEL-5,1810 nM
same,GI50,SF-268,1850 nM
same,GI50,HCT-116,1760 nM
same,GI50,OVCAR-4,2060 nM
same,GI50,SK-MEL-2,1950 nM
same,GI50,CAKI-1,1810 nM
same,GI50,LOX IMVI,924 nM
same,GI50,RPMI-8226,1460 nM
same,GI50,SF-539,1750 nM
same,GI50,A549,2580 nM
same,GI50,NCI-H23,1920 nM
same,GI50,786-0,1870 nM
same,GI50,NCI-H522,1960 nM
same,GI50,SNB-19,1970 nM
same,GI50,UACC-257,2760 nM
same,GI50,SK-OV-3,2080 nM
same,GI50,PC-3,1800 nM
same,GI50,Malme-3M,1840 nM
same,GI50,NCI-H322M,1690 nM
same,GI50,SW-620,1950 nM
same,inhibition,[2],57%
N=C(N)c1ccc(-c2ccc(-c3ccccc3)s2)cc1F,GI50,SNB-75,10500 nM
same,GI50,MDA-MB-435,2180 nM
same,GI50,SK-MEL-28,8230 nM
same,GI50,K562,3970 nM
same,GI50,NCI-H460,3690 nM
same,growth percent at 10 µM,[1],-79.2%
same,GI50,OVCAR-8,11300 nM
same,Activity,Escherichia coli,Dose-dependent effect
same,GI50,MDA-MB-468,2040 nM
same,GI50,OVCAR-5,10900 nM
same,GI50,U-251,4700 nM
same,GI50,NCI/ADR-RES,14100 nM
same,GI50,HT-29,3400 nM
same,GI50,RXF 393,7010 nM
same,GI50,COLO 205,1820 nM
same,GI50,M14,2120 nM
same,GI50,SN12C,8010 nM
same,IC50,WI-38,91500 nM
same,GI50,ACHN,6560 nM
same,GI50,HCT-15,4620 nM
same,GI50,HOP-92,1310 nM
same,GI50,UO-31,2680 nM
same,GI50,UACC-62,10300 nM
same,GI50,MCF7,3170 nM
same,GI50,Hs-578T,10900 nM
same,GI50,OVCAR-3,8900 nM
same,GI50,SK-MEL-5,3430 nM
same,GI50,SF-268,11200 nM
same,GI50,HCT-116,3260 nM
same,GI50,OVCAR-4,10400 nM
same,GI50,SK-MEL-2,4910 nM
same,GI50,CAKI-1,6790 nM
same,GI50,LOX IMVI,2580 nM
same,GI50,RPMI-8226,2780 nM
same,GI50,SF-539,4740 nM
same,GI50,A549,5100 nM
same,GI50,NCI-H23,11600 nM
same,GI50,786-0,6020 nM
same,GI50,NCI-H522,6800 nM
same,GI50,SNB-19,11700 nM
same,GI50,UACC-257,2180 nM
same,GI50,SK-OV-3,10200 nM
same,GI50,PC-3,4180 nM
same,GI50,Malme-3M,3250 nM
same,GI50,NCI-H322M,6000 nM
same,GI50,SW-620,4050 nM
same,inhibition,[2],54.5%
